# Earlier results, collected in US20250262182A1, “Beverage Composition and Process” (priority 2020, published 2025).
# Where two headings read alike, the source gives them in different places.
smiles,measurement,setting,value
NC(=O)NCCC[C@H](N)C(=O)O [L-citrulline],Adverse effects,dosages in the range of 6 g to 10 g,mild gastrointestinal upset
same,Adverse effects,dosages in the range of 10 g to 15 g,"stomach discomfort, bloating, or diarrhea"
same,Adverse effects,dosages over 20 g,electrolyte imbalance and/or headaches
same,Tolerability,"dosages up to 6 g, most people",generally well tolerated
